Assay results reported in patent US9260425B2 (Genetech, Inc., priority 2011, dated 2016).

Molecular target: Pim-1 (Homo sapiens (Human), UniProt P11309)
Test: Pim kinase binding activity assay (Example 901), PIM-1 enzyme, Caliper microfluidic peptide phosphorylation
Format: biochemical
Details: 20 pM PIM-1, 10 μM ATP, 1 μM FAM-peptide, 90 minutes at room temperature
Procedure: Pim Kinase Binding Activity
A fluorescent-labeled Pim-specific peptide substrate, was custom synthesized by American Peptide Company (Sunnyvale, Calif.). Reaction Buffer contained 10 mM HEPES, pH 7.2, 10 mM MgCl2, 0.01% Tween 20, 2 mM DTT. Termination Buffer contained 190 mM HEPES, pH 7.2, 0.015% Brij-35, 0.2% Coating Reagent 3 (Caliper Life Sciences, Hopkinton, Mass.), 20 mM EDTA. Separation Buffer contained 100 mM HEPES, pH 7.2, 0.015% Brij-35, 0.1% Coating Reagent 3, 1:200 Coating Reagent 8 (Caliper Life Sciences, Hopkinton, Mass.), 10 mM EDTA and 5% DMSO.
PIM reactions were carried out in a final volume of 10 μL per well in a 384-well plate. A standard enzymatic reaction, initiated by the addition of 5 μL 2×ATP and test compound to 5 μL of 2× enzyme and FAM-peptide, contained 20 pM PIM-1, 50 pM PIM-2, or 55 pM PIM-3, 1 μM FAM-peptide, and 10 μM ATP, in Reaction Buffer. After 90 minutes of incubation at room temperature, the phosphorylation reaction was stopped by the addition of 10 μL Termination Buffer. The product and substrate in each independent reaction were separated on a 12-sipper microfluidic chip (Caliper Life Sciences, Hopkinton, Mass.) run on a Caliper LC3000® (Caliper Life Sciences, Hopkinton, Mass.). The separation of product and substrate was optimized by choosing voltages and pressure using Caliper's Optimizer software (Hopkinton, Mass.). […] The product and substrate fluorophore were excited at 488 nm and detected at 530 nm. Substrate conversion was calculated from the electropherogram using HTS Well Analyzer software (Caliper Life Sciences, Hopkinton, Mass.). Ki values for the test compound were calculated.

Chain of Pim-1 (P11309 whole entry): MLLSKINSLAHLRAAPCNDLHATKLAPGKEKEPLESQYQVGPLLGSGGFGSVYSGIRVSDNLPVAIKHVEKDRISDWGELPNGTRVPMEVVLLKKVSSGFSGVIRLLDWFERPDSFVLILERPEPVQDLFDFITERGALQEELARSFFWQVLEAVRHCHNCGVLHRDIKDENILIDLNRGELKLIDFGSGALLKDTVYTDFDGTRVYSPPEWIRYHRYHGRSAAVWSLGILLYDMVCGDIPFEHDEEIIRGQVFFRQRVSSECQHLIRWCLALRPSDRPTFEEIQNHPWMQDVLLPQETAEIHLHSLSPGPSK

Compound | Ki
Fc1ccccc1-c1n[nH]c2cnc(-c3cncnc3)cc12 [Example 138, 3-(2-fluorophenyl)-5-(pyrimidin-5-yl)-1H-pyrazolo[3,4-c]pyridine] | 577000 pM
Fc1ccccc1-c1n[nH]c2cnc(-c3cnccc3O[C@H]3CCCNC3)cc12 [Example 148, (S)-3-(2-fluorophenyl)-5-(4-(piperidin-3-yloxy)pyridin-3-yl)-1H-pyrazolo[3,4-c]pyridin] | 342 pM
Cn1ccc(-c2n[nH]c3cnc(-c4cncc(N5CCC(N)CC5)n4)cc23)n1 [Example 233, 1-(6-(3-(1-methyl-1H-pyrazol-3-yl)-1H-pyrazolo[3,4-c]pyridin-5-yl)pyrazin-2-yl)piperidin-4-amine] | 51 pM
CCn1cc(-c2cc3c(-c4cc(OC)ccn4)n[nH]c3cn2)cn1 [Example 476, 5-(1-ethyl-1H-pyrazol-4-yl)-3-(4-methoxypyridin-2-yl)-1H-pyrazolo[3,4-c]pyridine] | 15700 pM
c1ccc(-c2n[nH]c3cnc(-c4cncs4)cc23)nc1 [Example 338, 5-(3-(pyridin-2-yl)-1H-pyrazolo[3,4-c]pyridin-5-yl)thiazole] | 24500 pM
Cn1cc(-c2cc3c(-c4ccc(Br)c(N5CC(N6CCS(=O)(=O)CC6)C5)n4)n[nH]c3cn2)cn1 [Example 387, 4-(1-(3-bromo-6-(5-(1-methyl-1H-pyrazol-4-yl)-1H-pyrazolo[3,4-c]pyridin-3-yl)pyridin-2-yl)azetidin-3-yl)-1,1-dioxothiomorpholine] | 1590 pM
Cc1ccc(-c2n[nH]c3cnc(-c4cnn(C)c4)cc23)nc1N1CCN(CCS(C)(=O)=O)C(C)(C)C1 [Example 428, 3-(6-(3,3-dimethyl-4-(2-(methylsulfonyl)ethyl)piperazin-1-yl)-5-methylpyridin-2-yl)-5-(1-methyl-1H-pyrazol-4-yl)-1H-pyrazolo[3,4-c]pyridine] | 112 pM
Fc1ccccc1-c1n[nH]c2cnc(-c3cnccc3OCCC3CCNCC3)cc12 [Example 220, 3-(2-fluorophenyl)-5-(4-(2-(piperidin-4-yl)ethoxy)pyridin-3-yl)-1H-pyrazolo[3,4-c]pyridine] | 379 pM
N[C@H]1CCCN(c2nc(-c3n[nH]c4cnc(-c5cccnc5)cc34)ccc2Br)CC1 [Example 312, (S)-1-(3-bromo-6-(5-(pyridin-3-yl)-1H-pyrazolo[3,4-c]pyridin-3-yl)pyridin-2-yl)azepan-4-amine] | 29 pM
O[C@@H]1CCCN(c2cccc(-c3n[nH]c4cnc(-c5cccnc5)cc34)n2)C1 [Example 271, (R)-1-(6-(5-(pyridin-3-yl)-1H-pyrazolo[3,4-c]pyridin-3-yl)pyridin-2-yl)piperidin-3-ol] | 73 pM
Cc1ccc(-c2n[nH]c3cnc(-c4cccnc4)cc23)nc1N1CC[C@@H](O)C1 [Example 306, (R)-1-(3-methyl-6-(5-(pyridin-3-yl)-1H-pyrazolo[3,4-c]pyridin-3-yl)pyridin-2-yl)pyrrolidin-3-ol] | 220 pM
NCC1CCCCN1c1cccc(-c2n[nH]c3cnc(-c4cccnc4)cc23)n1 (stereo not drawn) [Example 324, (1-(6-(5-(pyridin-3-yl)-1H-pyrazolo[3,4-c]pyridin-3-yl)pyridin-2-yl)piperidin-2-yl)methanamine] | 296 pM
O=C1CCCN1c1n[nH]c2cnc(-c3cccnc3)cc12 [Example 258, 1-(5-(pyridin-3-yl)-1H-pyrazolo[3,4-c]pyridin-3-yl)pyrrolidin-2-one] | 80900 pM
Fc1ccccc1-c1n[nH]c2cnc(-c3cnccc3OC[C@H]3CCNC3)cc12 [Example 211, (S)-3-(2-fluorophenyl)-5-(4-(pyrrolidin-3-ylmethoxy)pyridin-3-yl)-1H-pyrazolo[3,4-c]pyridine] | 1280 pM
Fc1ccccc1-c1n[nH]c2cnc(-c3cnc[nH]3)cc12 [Example 218, 3-(2-fluorophenyl)-5-(1H-imidazol-5-yl)-1H-pyrazolo[3,4-c]pyridine] | 30900 pM
CCn1cc(-c2cc3c(-c4cccc(N5CCN(C(C)=O)CC5)n4)n[nH]c3cn2)cn1 [Example 472, 1-(4-(6-(5-(1-ethyl-1H-pyrazol-4-yl)-1H-pyrazolo[3,4-c]pyridin-3-yl)pyridin-2-yl)piperazin-1-yl)ethanone] | 107 pM
O=C1OCCN1c1cc2c(-c3cccc(N4CCCCC4)n3)n[nH]c2cn1 [Example 373, 3-(3-(6-(piperidin-1-yl)pyridin-2-yl)-1H-pyrazolo[3,4-c]pyridin-5-yl)oxazolidin-2-one] | 483000 pM
CN1CCN(c2nc(-c3n[nH]c4cnc(-c5cnn(C)c5)cc34)ccc2Br)CC1 [Example 402, 3-(5-bromo-6-(4-methylpiperazin-1-yl)pyridin-2-yl)-5-(1-methyl-1H-pyrazol-4-yl)-1H-pyrazolo[3,4-c]pyridine] | 70 pM
c1ccc(-c2n[nH]c3cnc(-c4cncs4)cc23)cc1 [Example 323, 5-(3-phenyl-1H-pyrazolo[3,4-c]pyridin-5-yl)thiazole] | 33000 pM
CCCCc1ccc(-c2n[nH]c3cnc(-c4cccnc4)cc23)nc1N1CCC[C@H](N)C1 [Example 362, (S)-1-(3-butyl-6-(5-(pyridin-3-yl)-1H-pyrazolo[3,4-c]pyridin-3-yl)pyridin-2-yl)piperidin-3-amine] | 79 pM
N[C@@H]1CCN(c2cncc(-c3cc4c(-c5ccccc5F)n[nH]c4cn3)c2)C1 [Example 192, (R)-1-(5-(3-(2-fluorophenyl)-1H-pyrazolo[3,4-c]pyridin-5-yl)pyridin-3-yl)pyrrolidin-3-amine] | 511 pM
NC[C@H]1CCN(c2cncc(-c3n[nH]c4cnc(-c5cccnc5)cc34)c2)C1 [Example 168, (R)-(1-(5-(5-(pyridin-3-yl)-1H-pyrazolo[3,4-c]pyridin-3-yl)pyridin-3-yl)pyrrolidin-3-yl)methanamine] | 1600 pM

The remaining lines, values ahead:

Ki | Compound
86 pM | Cn1cc(-c2cc3c(-c4cccc(N5CCC(N)CC5)n4)n[nH]c3cn2)cn1 [Example 174, 1-(6-(5-(1-methyl-1H-pyrazol-4-yl)-1H-pyrazolo[3,4-c]pyridin-3-yl)pyridin-2-yl)piperidin-4-amine]
47.3 pM | CCn1cc(-c2cc3c(-c4cccc(N5CCC[C@@H](N)C5)n4)n[nH]c3cn2)cn1 [Example 285, (R)-1-(6-(5-(1-ethyl-1H-pyrazol-4-yl)-1H-pyrazolo[3,4-c]pyridin-3-yl)pyridin-2-yl)piperidin-3-amine]
136 pM | Cn1cc(-c2cc3c(-c4cccc(N5CC[C@@H](N)C5)n4)n[nH]c3cn2)cn1 [Example 189, (R)-1-(6-(5-(1-methyl-1H-pyrazol-4-yl)-1H-pyrazolo[3,4-c]pyridin-3-yl)pyridin-2-yl)pyrrolidin-3-amine]
426 pM | Cn1cc(-c2cc3c(-c4cccc(NCC5CCNCC5)n4)n[nH]c3cn2)cn1 [Example 183, 6-(5-(1-methyl-1H-pyrazol-4-yl)-1H-pyrazolo[3,4-c]pyridin-3-yl)-N-(piperidin-4-ylmethyl)pyridin-2-amine]
73 pM | Cn1cc(-c2cc3c(-c4cccc(N5CCC[C@@](C)(O)C5)n4)n[nH]c3cn2)cn1 [Example 424, (R)-3-methyl-1-(6-(5-(1-methyl-1H-pyrazol-4-yl)-1H-pyrazolo[3,4-c]pyridin-3-yl)pyridin-2-yl)piperidin-3-ol]
126 pM | Cn1cc(-c2cc3c(-c4cccc(N5C[C@@H]6C[C@H]5CN6)n4)n[nH]c3cn2)cn1 [Example 216, 3-(6-((1S,4S)-2,5-diazabicyclo[2.2.1]heptan-2-yl)pyridin-2-yl)-5-(1-methyl-1H-pyrazol-4-yl)-1H-pyrazolo[3,4-c]pyridine]
38 pM | NC1CCCN(c2cccc(-c3n[nH]c4cnc(-c5cccnc5)cc34)n2)CC1 (stereo not drawn) [Example 197, 1-(6-(5-(pyridin-3-yl)-1H-pyrazolo[3,4-c]pyridin-3-yl)pyridin-2-yl)azepan-4-amine]
128 pM | Cn1cc(-c2cc3c(-c4cccc(N5CCC[C@](C)(O)C5)n4)n[nH]c3cn2)cn1 [Example 423, (S)-3-methyl-1-(6-(5-(1-methyl-1H-pyrazol-4-yl)-1H-pyrazolo[3,4-c]pyridin-3-yl)pyridin-2-yl)piperidin-3-ol]
40 pM | Cn1cc(-c2cc3c(-c4cccc(N[C@H]5CC[C@@H](N)CC5)n4)n[nH]c3cn2)cn1 [Example 251, (1s,4s)-N1-(6-(5-(1-methyl-1H-pyrazol-4-yl)-1H-pyrazolo[3,4-c]pyridin-3-yl)pyridin-2-yl)cyclohexane-1,4-diamine]
110 pM | Cc1ccc(-c2n[nH]c3cnc(-c4cnn(C)c4)cc23)nc1N1CCC[C@@H](O)C1 [Example 418, (R)-1-(3-methyl-6-(5-(1-methyl-1H-pyrazol-4-yl)-1H-pyrazolo[3,4-c]pyridin-3-yl)pyridin-2-yl)piperidin-3-ol]
1170 pM | Cn1cc(-c2cc3c(-c4cccc(N5C[C@H](N)C[C@@H](F)C5)n4)n[nH]c3cn2)cn1 [Example 517, (3R,5R)-5-fluoro-1-(6-(5-(1-methyl-1H-pyrazol-4-yl)-1H-pyrazolo[3,4-c]pyridin-3-yl)pyridin-2-yl)piperidin-3-amine]
